Measured values published in publication PMC11790956, “A microscale thermophoresis-based enzymatic RNA methyltransferase assay enables the discovery of DNMT2 inhibitors” (Communications Chemistry, 2025).

Legend:
Type in all cases: biochemical
Settings in all cases: 500 µM of hit compound, Fig. 5D
[1] = target: T1, NSUN2 (Homo sapiens, UniProt Q08J23); assay: NSUN2 enzymatic split aptamer MST assay (selectivity panel)
T1 construct: made in house
Description: Next, we investigated the target selectivity of all hit compounds by inhibition experiments using the MTases characterized in this study (DNMT2, METTL3/14, TrmD, and NSUN2) as a selectivity panel. […] While Cpd3 (alexidine) could be identified as a DNMT2 inhibitor during MST- and FP- experiments, the ligand’s hydrophobic nature raised the concern this compound might be an aggregator of DNMT2. To exclude this possibility, we investigated the reversibility of alexidine binding using the FP displacement assay and separation of the alexidine ligand by small-scale size-exclusion chromatography (SEC)[34].
NSUN2: 50 mM Tris-HCl, pH 7.5, 5 mM EDTA, 5 mM MgCl2, 1.5 mM DTT. 200 nM NSUN2, 1 µM SAM, 250 ng/µL tRNA (total from E. coli). […]
MST experiments were carried out in at least technical triplicates using a Monolith NT.115 instrument (NanoTemper Technologies) using Monolith standard capillaries and the blue excitation laser setup. […] General settings were applied for all MST experiments as follows: manual temperature control: 25 °C, fluorescence measurement before MST: 4 s, MST (IR laser) on: 20 s, fluorescence after MST: 2 s, delay: 25 s. The laser power was adjusted to optimize the signal-to-noise ratio and the fluorescence signal. […] MST measurements were analyzed using the NT analysis software (version 1.5.41) and exported for statistical analysis and plotting in GraphPad Prism 7.01.

[2] = target: T2, METTL3/14 (Homo sapiens, UniProt Q86U44); assay: METTL3/14 enzymatic split aptamer MST assay
T2 construct: purchased BPS Bioscience BPS-100105
Description: Specifically, we studied the m^6A MTase METTL3/14 and the m^7G MTase S. aureus TrmD.
For MTase assay detection by MST, enzyme reaction mixtures with a total volume of 10 µL per single treatment condition were prepared and incubated for the desired reaction times. Inhibitors were added from corresponding DMSO stocks to a final DMSO concentration of max. […] Afterward, reactions were quenched at a given reaction time by the addition of 1 µL sodium dodecyl sulfate (SDS, solution, 3% in water) per 10 µL reaction mixture and mixed well by pipetting. […]
MST experiments were carried out in at least technical triplicates using a Monolith NT.115 instrument (NanoTemper Technologies) using Monolith standard capillaries and the blue excitation laser setup. […] General settings were applied for all MST experiments as follows: manual temperature control: 25 °C, fluorescence measurement before MST: 4 s, MST (IR laser) on: 20 s, fluorescence after MST: 2 s, delay: 25 s. The laser power was adjusted to optimize the signal-to-noise ratio and the fluorescence signal. LED and MST power settings were chosen individually for each sample by adjusting the LED power to yield fluorescence signals of at least 300 units (blue laser) or 3000 units (red laser) and the MST power to achieve an appropriate thermophoretic response (standard setting: medium MST power). […]

[3] = target: T3, S. aureus TrmD (Staphylococcus aureus, UniProt Q2FZ43); assay: S. aureus TrmD enzymatic split aptamer MST assay
T3 construct: made in house
T3 sequence (Q2FZ43 1-245): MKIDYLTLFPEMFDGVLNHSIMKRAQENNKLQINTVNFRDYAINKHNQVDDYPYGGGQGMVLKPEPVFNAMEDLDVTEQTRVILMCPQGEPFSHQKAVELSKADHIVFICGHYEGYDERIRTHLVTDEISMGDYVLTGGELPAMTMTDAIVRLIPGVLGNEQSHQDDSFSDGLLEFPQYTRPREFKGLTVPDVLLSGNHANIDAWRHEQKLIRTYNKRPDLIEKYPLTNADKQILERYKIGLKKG
Description: DNMT2 & S. aureus TrmD: 100 mM Tris-HCl, pH 8, 100 mM NH4OAc, 0.1 mM EDTA, 10 mM MgCl2, 10 mM DTT. For TrmD: 50 nM TrmD, 2 µM SAM, 1 µM tRNA^Leu.
For MTase assay detection by MST, enzyme reaction mixtures with a total volume of 10 µL per single treatment condition were prepared and incubated for the desired reaction times. Inhibitors were added from corresponding DMSO stocks to a final DMSO concentration of max. 5%. Afterward, reactions were quenched at a given reaction time by the addition of 1 µL sodium dodecyl sulfate (SDS, solution, 3% in water) per 10 µL reaction mixture and mixed well by pipetting. Subsequently, 1 µL of a 10× aptamer-containing detection master mix (200 mM Tris, pH 8.5, 200 mM MgCl2, 3 M NaCl, 10 mM urea, 0.2% Brij, 500 nM aptaSAH1, 500 nM aptaSAH2) was added to the quenched MTase reaction and incubated for 1 h at room temperature. […]

T1 sequence (Q08J23 whole entry, species assumed): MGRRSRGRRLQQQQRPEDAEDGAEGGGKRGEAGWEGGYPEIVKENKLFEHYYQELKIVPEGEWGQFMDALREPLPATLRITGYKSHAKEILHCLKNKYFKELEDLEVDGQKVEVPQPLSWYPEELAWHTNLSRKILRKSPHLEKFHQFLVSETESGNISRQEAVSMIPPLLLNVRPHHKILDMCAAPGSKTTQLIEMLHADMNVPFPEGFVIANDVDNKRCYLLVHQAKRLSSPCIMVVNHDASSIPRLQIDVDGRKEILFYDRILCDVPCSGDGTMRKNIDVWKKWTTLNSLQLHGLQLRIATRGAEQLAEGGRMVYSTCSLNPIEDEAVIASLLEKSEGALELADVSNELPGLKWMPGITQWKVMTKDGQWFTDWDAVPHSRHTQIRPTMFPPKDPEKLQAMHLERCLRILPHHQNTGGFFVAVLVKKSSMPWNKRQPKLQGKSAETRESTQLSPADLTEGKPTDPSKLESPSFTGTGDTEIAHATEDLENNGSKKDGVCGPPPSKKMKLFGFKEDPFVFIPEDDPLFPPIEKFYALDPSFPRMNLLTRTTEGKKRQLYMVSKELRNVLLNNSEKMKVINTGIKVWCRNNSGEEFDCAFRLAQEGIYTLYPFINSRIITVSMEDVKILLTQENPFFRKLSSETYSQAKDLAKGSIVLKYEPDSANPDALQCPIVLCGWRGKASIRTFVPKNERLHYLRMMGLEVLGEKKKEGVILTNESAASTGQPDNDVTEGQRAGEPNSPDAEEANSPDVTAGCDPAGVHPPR
T2 sequence (Q86U44 2-580 limits assumed): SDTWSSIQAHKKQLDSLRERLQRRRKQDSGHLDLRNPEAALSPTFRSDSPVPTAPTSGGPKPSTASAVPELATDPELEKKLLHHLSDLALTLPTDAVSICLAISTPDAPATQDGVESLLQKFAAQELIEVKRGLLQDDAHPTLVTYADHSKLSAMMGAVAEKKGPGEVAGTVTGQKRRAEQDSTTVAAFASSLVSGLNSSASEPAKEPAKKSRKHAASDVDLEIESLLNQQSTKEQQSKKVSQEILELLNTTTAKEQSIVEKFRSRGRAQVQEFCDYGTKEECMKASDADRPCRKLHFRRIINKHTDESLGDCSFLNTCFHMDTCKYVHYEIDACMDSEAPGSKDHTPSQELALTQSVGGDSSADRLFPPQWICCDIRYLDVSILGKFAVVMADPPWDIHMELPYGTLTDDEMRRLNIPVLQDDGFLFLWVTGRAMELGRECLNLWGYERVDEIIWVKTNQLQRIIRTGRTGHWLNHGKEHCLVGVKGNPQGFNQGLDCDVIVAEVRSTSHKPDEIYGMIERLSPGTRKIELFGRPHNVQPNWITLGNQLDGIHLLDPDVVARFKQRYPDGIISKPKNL
T2 sequence (Q9HCE5 2-456 partner limits assumed): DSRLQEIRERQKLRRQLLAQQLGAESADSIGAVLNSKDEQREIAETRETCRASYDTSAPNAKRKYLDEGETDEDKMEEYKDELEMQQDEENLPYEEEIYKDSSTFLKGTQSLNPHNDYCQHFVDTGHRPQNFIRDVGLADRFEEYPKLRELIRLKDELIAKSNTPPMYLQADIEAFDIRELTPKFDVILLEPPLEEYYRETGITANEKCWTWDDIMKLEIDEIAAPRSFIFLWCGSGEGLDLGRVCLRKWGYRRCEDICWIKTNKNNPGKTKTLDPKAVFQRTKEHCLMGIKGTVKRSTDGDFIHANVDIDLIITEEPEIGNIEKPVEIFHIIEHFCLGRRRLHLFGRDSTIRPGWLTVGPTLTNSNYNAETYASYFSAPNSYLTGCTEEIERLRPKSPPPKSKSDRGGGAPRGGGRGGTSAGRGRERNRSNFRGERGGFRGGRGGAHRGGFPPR

inhibition of NSUN2 (selectivity panel) [1]: did not inhibit
inhibition of METTL3/14 (selectivity panel) [2]: did not inhibit
inhibition of TrmD (selectivity panel) [3]: did not inhibit
SMILES: C=CC(=O)NC(=O)NC12CC3CC(CC(C3)C1)C2 [Cpd 11, 1-(adamantan-1-yl)-3-(prop-2-enoyl)urea]
